Values of other authors, collected in patent publication US20220117972A1, “USE OF PPAR-DELTA AGONISTS IN THE TREATMENT OF MITOCHONDRIAL MYOPATHY” (Reneo Pharmaceuticals, Inc., priority 2019, published 2022).

System: control myoblasts
Settings: cultured patient muscle cells study; cited from earlier work

## Cc1cc(SCc2sc(-c3ccc(C(F)(F)F)c(F)c3)nc2C)ccc1OCC(=O)O [GW 072]
  FAO stimulation: stimulated FAO

## CC(C)(Sc1ccc(CCN(CCCCC2CCCCC2)C(=O)NC2CCCCC2)cc1)C(=O)O [GW 7647]
  FAO stimulation: to a lower extent
